“Also recorded” adds a separate entry of the source. Where two headings read alike, the source gives them in different places.
Assays:
[1] = system: vestibular ganglion neurons; experiment: Patch-clamp (current-clamp) recording of depolarization-induced firing volley and membrane potential in cultured vestibular ganglion neurons; assay type: cell-based, Wistar rats; settings: for IC50: cultured rat vestibular neurons; for inhibition at 0.1 µM: 100 nM (0.1 μM); for variation of membrane potentials (qualitative): FIG. 4, high concentrations; for reversibility of the firing inhibition during rinse with control medium: perfusion of control medium after drug; for depolarization of the neurons: 5 mM
Experimental: Cell culture: Vestibular ganglion neurons were explanted aseptically from 2 to 6 days-old Wistar rats (Centre d'Elevage Janvier, Le Genest-Saint-Isle, France). All procedures were carried out in accordance to the French/European Communities Council Directive 86/609/EEC. The brainstem was hemi-sectioned and the eighth nerve was followed up to the level of the otocyst and cut just rostral to it.
The vestibular ganglia were excised, placed in Leibovitz medium (L15, Invitrogen, Cergy Pontoise, France), and dissociated by enzymatically (collagenase 0.75 mg/ml, dispase 1 mg/ml and dnase 0.75 mg/ml, 15 min at 25° C.). Enzymes were washed with Tyrode solution without Ca^2+ and Mg^2+, and the ganglion neurons were gently dissociated in culture medium with a pipette. The neurons were plated onto culture dishes previously coated with 5 μg/ml poly-L-ornithine, 10 μg/ml laminin and subsequently filled with 0.5 ml of a 1:1 mixture of Dulbecco's modified eagle medium and Ham's F-12 medium (Invitrogen) supplemented with 2% N2 nutrient glucose (5 g/l), glutamine (1.5 mM), sodium bicarbonate (1.1 g/l), HEPES buffer (15 mM, pH 7.4), AraC 2 μM, brain-derived neurotrophic factor 10 μg/ml and 1% penicillin/streptomycin. The low density cultures were then maintained at 37° C. in 5% CO2 for 7 to 8 days prior patch-clamp experiments.
Patch-clamp recordings: Whole-cell (current-clamp configuration) recording of responses were obtained using an Axopatch 200B amplifier (Axon Instruments; Molecular Devices Corp., Sunnyvale, Calif., USA). The extracellular solution contained (in mM): NaCl 135, HEPES 10, glucose 10, MgCl2 1, KCl 5, and CaCl2 4, pH 7.35 (with NaOH). Recording pipettes (2-3 MΩ) were drawn from microhematocrit tubes (Modulohm I/S Herlev, Denmark) and filled with the following solution (in mM): KCl 135, HEPES 10,glucose 10, NaCl5, EGTA 5, Mg-ATP3, GTP-Na 1, pH 7.35 (with KOH). The osmolarity of all solutions was set to 300 mOsm/I^−1. Experimental parameters and data acquisition were controlled with a PC computer and a Tecmar Labmaster analogue interface (Axon instruments, CA). Voltage transients were recorded from neurons presenting resting potentials lying between −45 and −65 mV. Trains of action potentials (APs) were elicited using 1 s, 200 pA depolarizing pulses applied every 6.5 s. Current signals were filtered at 10 KHz, digitized and stored using pCLAMP software (v 10.2, Axon instruments).
Drug application : The control and test solutions were applied using a multiple capillary perfusion system (flow rate 500 μl/min). After each application of the tested drug, the cells were washed with control buffer.
Data analysis and statistical methods : The results are expressed as means±S.E.M. The number of sample size (n) given is the number of neurons tested. Variations of the membrane potential and the number of APs were analysed using pCLAMP software (v10.2, Axon instruments). Drug concentration-effect relationships were fitted with a Hill equation of the form I(x)=A*xn/(IC50n+xn).

[2] = molecular target: T1, human H3 receptor (Homo sapiens, UniProt Q9Y5N1); settings: radioligand, transfected cell membranes; cited from earlier work
T1 construct: expressed in transfected cells; host or cells: SK-N-MC or HEK293 T
T1 sequence (Q9Y5N1 whole entry): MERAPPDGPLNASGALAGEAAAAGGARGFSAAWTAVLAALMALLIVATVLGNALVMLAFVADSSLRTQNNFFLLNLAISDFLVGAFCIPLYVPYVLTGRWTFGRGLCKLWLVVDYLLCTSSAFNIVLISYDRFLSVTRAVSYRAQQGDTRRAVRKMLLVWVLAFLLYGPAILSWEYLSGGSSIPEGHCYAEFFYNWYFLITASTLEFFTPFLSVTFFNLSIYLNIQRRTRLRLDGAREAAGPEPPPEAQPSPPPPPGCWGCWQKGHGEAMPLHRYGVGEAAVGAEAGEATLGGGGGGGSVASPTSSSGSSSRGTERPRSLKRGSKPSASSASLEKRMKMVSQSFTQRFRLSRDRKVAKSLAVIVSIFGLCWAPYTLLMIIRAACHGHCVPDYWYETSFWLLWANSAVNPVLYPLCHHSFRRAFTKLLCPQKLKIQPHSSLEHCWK

[3] = system: peripheral vestibular receptors isolated from axolotl; settings: cited from earlier work
[4] = Neuron, dose-response fitted with Hill equation, read-out: IC50 of inhibition of the firing volley induced by standard depolarization
[5] = Rattus norvegicus, Neuron, tonic discharge

Compound CN1CCN(C(=O)c2cc3cc(Cl)ccc3[nH]2)CC1 [JNJ 7777120, 1-[(5-chloro-1H-indol-2-yl)carbonyl]-4-methylpiperazine] has an IC50 [1, 4] of 10 µM, an inhibition at 0.1 µM [1, 5] of 3% and an inhibition at 1 µM [1, 5] of 29%. The inhibition at 10 µM [1, 5] was 41% and the membrane depolarisation ([1]; high concentration application (1 mM)) was “did not induce membrane depolarisation”.

In the case of CN1CCN(C(=O)c2nc3cc(Cl)ccc3[nH]2)CC1 [VUF 6002, 1-[(5-chloro-1H-benzimidazol-2-yl)carbonyl]-4-methylpiperazine], the “action potentials intrinsic properties (spike amplitude, time to peak, rise and decay time constants)” value [1] is reported as “not affected”, the membrane hyperpolarization ([1]; 100 μM) is reported as “about −3 mV” and the “inhibition of the firing” value ([1]; 100 μM, tonic discharge) is reported as 90%. The “effect on firing, phasic discharge pattern” value ([1]; 1 mM, neurons with phasic discharge, n=6) was “completely abolished the firing”, the “variation of membrane potentials (qualitative)” value (from here on “variation of membrane potentials”) [1] was “did not induce membrane variations” and the IC50 [1, 4] was 5.8 µM. The inhibition at 0.1 µM [1, 5] was 20%, the inhibition at 1 µM [1, 5] was 37% and the inhibition at 10 µM [1, 5] was 55%. For the same compound, the inhibition at 100 µM ([1]; Rattus norvegicus, Neuron, 100 μM, tonic discharge) was 91%, the “concentration of maximum inhibition of the firing” value ([1]; dose-response between 1 nM and 1 mM) was “around 100 μM” and the “reversibility of the firing inhibition during rinse with control medium” value [1] was “reversed during rinse with control medium; also recorded: totally reversed”.

For CNCCc1cnc[nH]1 [[^3H]N-a-methyl histamine], the Kd [2] is listed as 0.001 µM.

In the case of CNCCc1ccccn1.Cl.Cl [betahistine, betahistine dihydrochloride], the “effect on membrane potential” value ([1]; 2 mM application) is reported as “not affected”, the “depolarization of the neurons” value ([1]; dihydrochloride) is reported as “about 15 mV” and the “depolarization of the neurons” value ([1]; listed as BH, dihydrochloride) is reported as 14.3±4.7 mV. For the same compound, the “variation of membrane potentials” value ([1]; dihydrochloride) was “pronounced depolarisation of the neurons”, the “variation of membrane potentials” value ([1]; listed as betahistidine, dihydrochloride) was “strong depolarisations at high concentrations” and the IC50 ([1]; dose-response relationship, read-out: IC50 of inhibition of the discharge volley) was 2200 µM. For the same compound, the “reversibility of the firing inhibition during rinse with control medium” value ([1]; dihydrochloride) was “rapidly reversed during rinse with control medium”, the “reversibility of the firing inhibition during rinse with control medium” value ([1]; listed as BH, dihydrochloride) was “rapidly abolished” and the “concentration of maximum inhibition of the discharge volley” value ([1]; standard depolarization stimulation) was “around 10 mM”. For the same compound, the “concentration of maximum effect on afferent discharge” value [3] was “around 10 mM” and the IC50 ([3]; read-out: IC50 of inhibition of the afferent discharge) was 800 µM.

In the case of O=C(O)/C=C\C(=O)O.S=C(NC1CCCCC1)N1CCC(c2c[nH]cn2)CC1 [thioperamide, N-cyclohexyl-4-(1H-imidazol-4-yl)-1-piperidinecarbothioamide maleate], the “membrane depolarisation at low concentration” value ([1]; 0.01 to 10 μM) is reported as “without depolarizing the neurons”, the “variation of membrane potentials” value ([1]; maleate) is reported as “strong depolarisations at high concentrations; also recorded: strong membrane depolarisations; also recorded: pronounced depolarisation of the neurons” and the IC50 [1, 4] is reported as 100 µM. The inhibition at 0.1 µM [1, 5] was 10%, the inhibition at 10 µM [1, 5] was 24% and the inhibition at 500 µM ([1]; Rattus norvegicus, Neuron, 500 μM, read-out: inhibition of the firing (blocked activity)) was 87%. The “reversibility of the firing inhibition during rinse with control medium” value [1] was “only slightly reversible”.

From patent US10195195B2, “Selective histamine H4 receptor antagonists for the treatment of vestibular disorders” (INSERM (Institut National de la Sante de la Recherche …, priority 2008, dated 2019)
